Experimental data from patent US7629317B2, “Control of growth and repair of gastro-intestinal tissues by gastrokines and inhibitors” (The University of Chicago, priority 2001, dated 2009).
Entries after “also recorded” stand apart in the source; their conditions may differ.

Columns and labels:
IEC-18 cells = experiment: Growth of confluent cultures of IEC-18 cells (cell count); format: cell-based, rat; conditions: confluent IEC-18 cultures, FIG. 13; read-out: half-maximal concentration (K1/2) for growth stimulation
Experimental: Confluent cultures of IEC-18 cells were prepared. One day later, medium was aspirated and replaced with 5 ml of DMEM containing CS (0.5%) and insulin, without (control) or with mitogenic peptide 58-99 (8 μg/ml). Sister plates receiving 1 ml medium and different amounts of peptide 67-85 were incubated at 1 hr at 38° C. on a CO2 incubator, and then an additional 4 ml of medium was added to each dish. Peptide 58-99 was added to 2 of the 4-sister plates at each concentration of peptide 67-85, and the number of cells was counted. […] Stimulation of cell growth by mitogenic peptide 58-99 was completely abolished by preincubation of cells with 0.25 μg/ml of peptide 67-85. […] Values for the number of cells per culture are shown relative to multiplication of cells exposed to the vehicle during the same period.
Urea (6 M) was employed to release proteins from the insoluble fraction solubilize rhAMP-18 containing the His6-tag (SEQ ID NO: 16), and make it available to bind to the Ni^2+-charged resin from which it was subsequently eluted with a gradient of imidazole (0 to 200 mM). The amount of eluted rhAMP-18 was measured using the BCA assay, and the appearance of a single band at the predicted size of 19-20 kD was confirmed by SDS-PAGE followed by immunoblotting. To determine if eluted rhAMP-18 renatured to assume a structure that was mitogenic, aliquots of the eluate (following removal of urea and imidazole by dialysis) were added to cultures of IEC-18 cells and the number of cells was counted 4 days later. […] AMP peptide 77-97 refers to the mature protein; same as peptide 97-117 of human precursor protein: Table 1. These observations indicate that biologically active recombinant human AMP-18 that can be utilized in diverse clinical situations is available. The mitogenic potency of rhAMP-18 is in the nanomolar range which would be expected for a native gastric cell growth factor that participates in the maintenance and repair of the stomach in vivo.
(§1) To characterize the capacity of gastric and intestinal cells to respond to AMP-18, AGS gastric adenocarcinoma cells, HAE human gastric antrum mucosa primary cultures transformed with SV40 large T antigen, rat diploid small intestinal epithelial cells of the IEC-6 (FIG. 15) and IEC-18 lines, NCI N-87 gastric carcinoma cells, and SK-GT5 gastroesophageal adenocarcinoma cells were studied; human WI-38 fibroblasts and HeLa cells served as non-GI control cell lines. Mitogenesis was assayed by performing cell counts 3 to 4 days after exposing cells to the agent of interest, trypsinizing the culture to prepare single cells, and confirming this while counting them in a hemocytometer.

AGS cells = experiment: Growth of gastric epithelial AGS cells (cell count four days later); format: cell-based, human
Experimental: as §1

[1] = tested on: occludin, ZO-1, ZO-2, claudin-5, E-cadherin, JAM; experiment: Accumulation of tight and adherens junction proteins in C2 cells (immunoblot of insoluble fraction, confocal microscopy); format: cell-based, human
Experimental: To find out how the peptide exerts its cytoprotective effect, C2 cell monolayers were treated with AMP peptide, and oxidant injury was induced with monochloramine 18 hours later. Changes in the levels of specific tight junction (TJ) proteins were checked. Cells were lysed, and proteins of the insoluble/particulate fraction were studied by immunoblotting. […] This observation represents the first evidence that AMP peptide enhances accumulation of specific TJ proteins in colonic epithelial cells. […] To carry out this experiment, C2 cells were exposed to AMP peptide for different periods of time, the NP-40-insoluble fraction was obtained, Western blots were prepared, and the amount of each immunoreactive protein was quantified. A 65% increase in immunoreactivity of each protein compared to control was detected for occludin after 2 hr, and for ZO-1 at 8 hr. Hsc73, which is constitutively expressed in these cells, was not altered by exposure to AMP peptide for up to 18 hr.
Confluent monolayers of C2 cells were treated with AMP peptide or vehicle for 8 hr. Cells were then collected, proteins in the NP-40-insoluble fraction were separated by SDS-PAGE, immunoblots were prepared, and the relative amounts of immunoreactive proteins were compared by densitometric analysis. […] These changes appear relatively specific for occludin, ZO-1, ZO-2, claudin-5, E-cadherin, and JAM because they were not observed for several other proteins localized in the TJ (claudin-1, claudin-2), adherens junction (β-catenin), plasma membrane (Na-K-2Cl cotransporter, α or β subunit of Na-K-ATPase), or cytosol (Rho A, hsc73).
To better understand the mechanism(s) by which AMP peptide enhances accumulation of TJ-associated proteins, experiments were performed to determine whether the peptide exerted its effect at the apical or basolateral surface of C2 cells. Monolayers of C2 cells were grown on Transwell filters, AMP peptide (8:g/ml) was added to the apical or basolateral compartment of the Transwell, and cells were harvested 8 hr later. The NP-40-insoluble fraction was obtained, its proteins separated, and immunoblots were prepared.

[2] = tested on: protein kinase (PK) C zeta (ζ); experiment: Phosphorylation of PKCζ in C2 cells (immunoblotting, confocal microscopy); format: cell-based, human; conditions: within 20 min
Source text: To learn more about how AMP peptide could participate in the establishment of TJ structures and epithelial cell polarity during epithelial wound healing, attention was focused on protein kinase (PK) C zeta (ζ), an atypical PKC that appears to be required for assembly of TJs (Suzuki et al., 2001). PKCζ, presumably in its active form phospho-PKCζ, regulates TJs, apparently by interacting with several TJ-associated proteins including occludin, PAR-6, and PAR-3.

[3] = tested on: tyrosine phosphorylation, p38 MAP kinase, hsp25, JNK1/2, ERK1/2; experiment: Phosphorylation of signaling proteins in IEC-18 cells (immunoblot); format: cell-based, rat
Experimental: To find signaling molecules by which AMP peptide mediates its biological effects, it was asked if the peptide stimulates tyrosine phosphorylation in GI epithelial cells. IEC-18 cells were treated with AMP peptide for different periods of time, the cells were then lysed, the proteins extracted and separated on SDS-polyacrylamide gels, blotted, and the blot was probed with 4G10 anti-phosphotyrosine monoclonal antibody.
First the effect of AMP peptide on phosphorylation of p38 MAPK in IEC-18 cells was examined. After exposure to the peptide (8 μg/ml) for up to 2 hr, the cells were lysed, the proteins were extracted, and Western blot analysis was performed using anti-phospho-specific p38 antibody. Then the membrane was stripped and reprobed with anti-p38 antibody. […] Next, to see if AMP peptide stimulated phosphorylation of hsp25, a specific anti-phospho-hsp25 antibody (Affinity BioReagents) was used to probe a blot prepared using AMP peptide-treated IEC-18 cells as above.

Q: Which EC50 (IEC-18 cells) does the source give for “LDALVKEKKLQGKGPGGPPPK [97–117, peptide 77-97 of the mature protein, same as 97-117 of the human precursor]” here?
A: The EC50 was ~300 nM.

Q: What about the “growth stimulation together with EGF” value (AGS cells; peptide 77-97 8 μg/ml + EGF 50 ng/ml) of the same sequence?
A: The value was “additive”.

Q: And the “growth stimulation of AGS cells (in words)” value (AGS cells; peptide 77-97 8 μg/ml, EGF 50 ng/ml at saturating doses)?
A: The value was “stimulated growth; also recorded: mitogenic”.

Q: And the “changes in claudin-1, claudin-2, β-catenin, Na-K-2Cl cotransporter, Na-K-ATPase subunits, Rho A, hsc73” value [1]?
A: Its value is “not observed”.

Q: And the “increase in accumulation of junctional adhesion molecule (JAM)” value ([1]; 48 and 72 hr vs 0 hr)?
A: The value was ~50%.

Q: And the “increased accumulation of E-cadherin” value ([1]; 8 hr)?
A: Its value is 2 fold.

Q: And the “increased accumulation of occludin, ZO-1, ZO-2 and claudin-5” value ([1]; 8 hr, densitometric analysis)?
A: Its value is 3- to 6 fold.

Q: What about the “accumulation of occludin and ZO-1 (specificity)” value ([1]; 8 hr, peptides 8 μg/ml, EGF 50 ng/ml) of the same sequence?
A: The value was “enhanced accumulation”.

Q: And the “ZO-1 and occludin levels in the insoluble fraction versus vehicle” value ([1]; after oxidant injury)?
A: Its value is “two-fold”.

Q: What about the “accumulation of occludin and claudin-5, basolateral exposure” value ([1]; basolateral compartment of Transwell, 8 hr) of the same sequence?
A: Its value is “increased accumulation”.

Q: And the Hsc73 expression ([1]; exposure up to 18 hr)?
A: The Hsc73 expression was “not altered”.

Q: And the “increase in occludin immunoreactivity compared to control” value ([1]; non-injured cells, after 2 hr)?
A: Its value is 65%.

Q: And the “increase in ZO-1 immunoreactivity compared to control” value ([1]; non-injured cells, at 8 hr)?
A: The value was 65%.

Q: What about the “occludin immunoreactivity versus vehicle-treated control cells” value ([1]; peptide 8 μg/ml, 18 hr, listed as AMP peptide) of the same sequence?
A: Its value is “double”.

Q: And the “phosphorylation of PKCζ” value [2]?
A: Its value is “increase in phosphorylation”.

Q: What about the “phospho (P)-hsp25” value ([3]; 30 min) of the same sequence?
A: Its value is “stimulated the appearance”.

Q: What about the “activation (phosphorylation) of JNK1/2 and ERK1/2” value ([3]; JNKs after 10 min, ERKs at 20 min, listed as AMP peptide) of the same sequence?
A: Its value is “rapidly activated”.

Q: And the “total hsp25” value ([3]; after 1 hr)?
A: Its value is “increase”.

Q: What about the “total p38 MAPK” value ([3]; peptide 8 μg/ml) of the same sequence?
A: The value was “no change”.

Q: And the “p38 MAP kinase phosphorylation” value ([3]; peptide 8 μg/ml, 30 min, listed as AMP peptide)?
A: Its value is “striking increase; also recorded: increased”.

Q: What about the protein tyrosine phosphorylation ([3]; peptide 8 μg/ml, two min) of the same sequence?
A: Its protein tyrosine phosphorylation is “tyrosine phosphorylation of several proteins”.
